Experimental data as given in patent US12668589B2, “N-formamidopyrazoline derivative as P2X3 receptor antagonist and use thereof” (HANGZHOU WESTAN PHARMACEUTICAL TECHNOLOGY CO., LTD, priority 2020, dated 2026).

target: T1, human P2X3 (Homo sapiens, UniProt P56373); experiment: cell-based
T1 sequence (P56373 1-397): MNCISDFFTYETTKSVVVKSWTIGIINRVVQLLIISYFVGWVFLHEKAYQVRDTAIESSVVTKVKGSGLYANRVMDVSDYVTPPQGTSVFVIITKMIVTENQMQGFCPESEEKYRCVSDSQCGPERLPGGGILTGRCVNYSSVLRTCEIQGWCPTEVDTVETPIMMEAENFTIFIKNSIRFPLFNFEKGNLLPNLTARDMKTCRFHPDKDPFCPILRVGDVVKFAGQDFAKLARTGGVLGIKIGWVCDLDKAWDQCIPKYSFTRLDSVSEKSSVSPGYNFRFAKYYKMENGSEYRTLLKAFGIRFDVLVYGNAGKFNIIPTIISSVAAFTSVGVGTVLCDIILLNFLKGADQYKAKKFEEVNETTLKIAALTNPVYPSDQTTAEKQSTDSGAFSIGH

Structure (SMILES)	IC50 [nM]
Cc1ccc(C2=NN(C(=O)N[C@H](C)c3ccc(Cl)cc3)C[C@@H]2N2CCN(C)CC2=O)cc1 [Compound 2, (S)-4-(4-methyl-2-oxopiperazin-1-yl)-3-(4-methylphenyl)-N-((R)-1-(4-chlorophenyl)ethyl)-4,5-dihydro-1H-pyrazol-1-carboxamide]	7540
Cc1ccc(C2=NN(C(=O)N[C@H](C)c3cnc(C(F)(F)F)nc3)C[C@@H]2N2CCOCC2=O)cc1 [Compound 3]	215
Cc1ccc(C2=NN(C(=O)N[C@H](C)c3cnc(C(F)(F)F)nc3)C[C@H]2N2CCOCC2=O)cc1 [Compound 3a, (R)-4-(3-oxomorpholin-4-yl)-3-(4-methylphenyl)-N-((R)-1-(2-(trifluoromethyl)pyrimidin-5-yl)ethyl)-4,5-dihydro-1H-pyrazol-1-carboxamide]	318
CC(=O)N(C)[C@H]1CN(C(=O)N[C@H](C)c2ccc(C(F)(F)F)cc2)N=C1c1ccc(C)cc1 [Compound 5]	409
CC(=O)N(C)[C@@H]1CN(C(=O)N[C@H](C)c2ccc(C(F)(F)F)cc2)N=C1c1ccc(C)cc1 [Compound 5a, (R)-4-(N-methylacetamido)-3-(4-methylphenyl)-N-((R)-1-(4-(trifluoromethyl)phenyl)ethyl)-4,5-dihydro-1H-pyrazol-1-carboxamide]	353
COc1ccc([C@@H](C)NC(=O)N2C[C@H](N3CCOC3=O)C(c3ccc(C)cc3)=N2)cc1OC [Compound 6]	1230
Cc1ccc(C2=NN(C(=O)N[C@H](C)c3ccc4c(c3)OCO4)C[C@@H]2N2CCCC2=O)cc1 [Compound 7, (S)-4-(2-oxopyrrolidin-1-yl)-3-(4-methylphenyl)-N-((R)-1-(3,4-(methylenedioxy)phenyl)ethyl)-4,5-dihydro-1H-pyrazol-1-carboxamide]	985
CC(=O)N1CCN([C@H]2CN(C(=O)N[C@H](C)c3ccc(C#N)cc3)N=C2c2ccc(C)cc2)C1=O [Compound 8, (S)-4-(3-acetyl-2-oxoimidazolidin-1-yl)-3-(4-methylphenyl)-N-((R)-1-(4-cyanophenyl)ethyl)-4,5-dihydro-1H-pyrazol-1-carboxamide]	793
COc1ccc([C@@H](C)NC(=O)N2C[C@H](N3CCCC3=O)C(c3ccc(C)cc3)=N2)nc1 [Compound 9]	529
Cc1ccc(C2=NN(C(=O)N[C@H](C)c3ccc(C(F)(F)F)cn3)C[C@@H]2N2CCCC2=O)cc1 [Compound 10]	216
Cc1ccc(C2=NN(C(=O)N[C@H](C)c3ccc(C(F)(F)F)cn3)C[C@H]2N2CCCC2=O)cc1 [Compound 10a]	136
CC(=O)N(C)[C@H]1CN(C(=O)N[C@H](C)c2ccc(Cl)nc2)N=C1c1ccc(C)cc1 [Compound 11]	357
CC(=O)N(C)[C@@H]1CN(C(=O)N[C@H](C)c2ccc(Cl)nc2)N=C1c1ccc(C)cc1 [Compound 11a]	281
Cc1ccc(C2=NN(C(=O)N[C@H](C)c3cnc(F)c(F)c3)C[C@@H]2N2CCOC2=O)cc1 [Compound 12]	436
Cc1ccc(C2=NN(C(=O)N[C@H](C)c3cnc(F)c(F)c3)C[C@H]2N2CCOC2=O)cc1 [Compound 12a]	322
Cc1ccc(C2=NN(C(=O)N[C@H](C)c3ccc(OC(F)(F)F)nc3)C[C@@H]2N2CCCC2=O)cc1 [Compound 13]	257
COc1ccc([C@@H](C)NC(=O)N2C[C@H](N3CCOCC3)C(c3ccc(F)cc3)=N2)cn1 [Compound 14, (S)-4-(morpholin-4-yl)-3-(4-fluorophenyl)-N-((R)-1-(6-methoxypyridin-3-yl)ethyl)-4,5-dihydro-1H-pyrazol-1-carboxamide]	736
Cc1ccc(C2=NN(C(=O)N[C@H](C)c3ccc(C(F)(F)F)nc3)C[C@@H]2N(C)C(=O)CN(C)C)cc1 [Compound 15, (S)-4-(2-(dimethylamino)-N-methylacetamido)-3-(4-methylphenyl)-N-((R)-1-(6-(trifluoromethyl)pyridin-3-yl)ethyl)-4,5-dihydro-1H-pyrazol-1-carboxamide]	2300
COC(=O)N(C)[C@H]1CN(C(=O)N[C@H](C)c2ccc(C(F)(F)F)nc2)N=C1c1ccc(OC)cc1 [Compound 16, (S)-4-(N-methyl-N-methoxycarbonylamino)-3-(4-methoxyphenyl)-N-((R)-1-(6-(trifluoromethyl)pyridin-3-yl)ethyl)-4,5-dihydro-1H-pyrazol-1-carboxamide]	132
CC(=O)N1CCN([C@H]2CN(C(=O)N[C@H](C)c3ccc(C(F)(F)F)nc3)N=C2c2ccc(C)cc2)C1=O [Compound 18, (S)-4-(3-acetyl-2-oxoimidazolidin-1-yl)-3-(4-methylphenyl)-N-((R)-1-(6-(trifluoromethyl)pyridin-3-yl)ethyl)-4,5-dihydro-1H-pyrazol-1-carboxamide]	173
CC(=O)N1CCN([C@H]2CN(C(=O)N[C@H](C)c3ccc(C(F)(F)F)nc3)N=C2c2ccc(C)cc2)CC1 [Compound 19]	3860
C[C@@H](NC(=O)N1C[C@H](N2CCOCC2=O)C(c2ccc(F)cc2)=N1)c1ccc(C(F)(F)F)nc1 [Compound 24, (S)-4-(3-oxomorpholin-4-y])-3-(4-fluorophenyl)-N-((R)-1-(2-(6-(trifluoromethyl)pyridin-3-yl)ethyl)-4,5-dihydro-1H-pyrazol-1-carboxamide]	212
CC(=O)N(C)[C@H]1CN(C(=O)N[C@H](C)c2ccc(C(F)(F)F)nc2)N=C1c1ccc(C)cc1 [Compound 25]	158
Cc1ccc(C2=NN(C(=O)N[C@H](C)c3cnc(C(F)(F)F)cn3)C[C@@H]2N2CCOCC2=O)cc1 [Compound 26]	143
Cc1ccc(C2=NN(C(=O)N[C@H](C)c3cnc(C)cn3)C[C@@H]2N2CCOC2=O)cc1 [Compound 27]	389
Cc1cnc([C@@H](C)NC(=O)N2C[C@H](N3CCCC3=O)C(c3ccc(F)cc3)=N2)cn1 [Compound 28, (S)-4-(2-oxopyrrolidin-1-yl)-3-(4-fluorophenyl)-N-((R)-1-(5-methylpyrazin-2-yl)ethyl)-4,5-dihydro-1H-pyrazol-1-carboxamide]	218
COc1ccc([C@@H](C)NC(=O)N2C[C@H](N3CCOC3=O)C(c3ccc(Cl)cc3)=N2)nn1 [Compound 29, (S)-4-(2-oxooxazolidin-3-yl)-3-(4-chlorophenyl)-N-((R)-1-(6-(methoxy)pyridazin-3-yl)ethyl)-4,5-dihydro-1H-pyrazol-1-carboxamide]	152
Cc1ccc(C2=NN(C(=O)N[C@H](C)c3cnc(C(F)(F)F)nc3)C[C@@H]2N2CCCC2=O)cc1 [Compound 32, (S)-4-(2-oxopyrrolidin-1-yl)-3-(4-methylphenyl)-N-((R)-1-(2-(trifluoromethyl)pyrimidin-5-yl)ethyl)-4,5-dihydro-1H-pyrazol-1-carboxamide]	127
C[C@@H](NC(=O)N1C[C@H](N2CCOCC2=O)C(c2ccc(F)cc2)=N1)c1cnc(C(F)(F)F)nc1 [Compound 33, (S)-4-(3-oxomorpholin-4-yl)-3-(4-fluorophenyl)-N-((R)-1-(2-(trifluoromethyl)pyrimidin-5-yl)ethyl)-4,5-dihydro-1H-pyrazol-1-carboxamide]	254

Further lines, results first:

IC50 [nM]	Structure (SMILES)
329	Cc1ccc(C2=NN(C(=O)N[C@H](C)c3ccc(OC(F)(F)F)nc3)C[C@H]2N2CCCC2=O)cc1 [Compound 13a]
88	COC(=O)N(C)[C@@H]1CN(C(=O)N[C@H](C)c2ccc(C(F)(F)F)nc2)N=C1c1ccc(OC)cc1 [Compound 16a, (R)-4-(N-methyl-N-methoxycarbonylamino)-3-(4-methoxyphenyl)-N-((R)-1-(6-(trifluoromethyl)pyridin-3-yl)ethyl)-4,5-dihydro-1H-pyrazol-1-carboxamide]
95	CC(=O)N1CCN([C@@H]2CN(C(=O)N[C@H](C)c3ccc(C(F)(F)F)nc3)N=C2c2ccc(C)cc2)C1=O [Compound 18a, (R)-4-(3-acetyl-2-oxoimidazolidin-1-yl)-3-(4-methylphenyl)-N-((R)-1-(6-(trifluoromethyl)pyridin-3-yl)ethyl)-4,5-dihydro-1H-pyrazol-1-carboxamide]
85	Cc1ccc(C2=NN(C(=O)N[C@H](C)c3ccc(C(F)(F)F)nc3)C[C@H]2N2CCCC2=O)cc1 [Compound 21a]
46	Cc1ccc(C2=NN(C(=O)N[C@H](C)c3ccc(C(F)(F)F)nc3)C[C@H]2N2CCOC2=O)nc1 [Compound 23a, (R)-4-(2-oxooxazolidin-3-yl)-3-(5-methylpyridin-2-yl)-N-((R)-1-(6-(trifluoromethyl)pyridin-3-yl)ethyl)-4,5-dihydro-1H-pyrazol-1-carboxamide]
145	C[C@@H](NC(=O)N1C[C@@H](N2CCOCC2=O)C(c2ccc(F)cc2)=N1)c1ccc(C(F)(F)F)nc1 [Compound 24a]
112	CC(=O)N(C)[C@@H]1CN(C(=O)N[C@H](C)c2ccc(C(F)(F)F)nc2)N=C1c1ccc(C)cc1 [Compound 25a]
332	Cc1ccc(C2=NN(C(=O)N[C@H](C)c3cnc(C(F)(F)F)cn3)C[C@H]2N2CCOCC2=O)cc1 [Compound 26a]
257	Cc1ccc(C2=NN(C(=O)N[C@H](C)c3cnc(C)cn3)C[C@H]2N2CCOC2=O)cc1 [Compound 27a]
165	Cc1cnc([C@@H](C)NC(=O)N2C[C@@H](N3CCCC3=O)C(c3ccc(F)cc3)=N2)cn1 [Compound 28a, (R)-4-(2-oxopyrrolidin-1-yl)-3-(4-fluorophenyl)-N-((R)-1-(5-methylpyrazin-2-yl)ethyl)-4,5-dihydro-1H-pyrazol-1-carboxamide]
105	COc1ccc([C@@H](C)NC(=O)N2C[C@@H](N3CCOC3=O)C(c3ccc(Cl)cc3)=N2)nn1 [Compound 29a, (R)-4-(2-oxooxazolidin-3-yl)-3-(4-chlorophenyl)-N-((R)-1-(6-(methoxy)pyridazin-3-yl)ethyl)-4,5-dihydro-1H-pyrazol-1-carboxamide]
